The values that follow come from patent US9012518B2, “Compositions and methods of delivery of pharmacological agents” (Abraxis BioScience, LLC, priority 2002, dated 2015).

Structures can show the parent of a compound that is named as a salt.

For series [1] the following is noted: cited from earlier work.
For series [2] the following is noted: 22.5° C.; cited from earlier work.
The target of a further series is immobilized albumin (Homo sapiens, UniProt P02768). As to the kind of experiment: Competition of added albumin with binding of fluorescent paclitaxel to immobilized albumin. As to conditions: similar effect with binding to endothelial cells. The text has this:
Albumin was immobilized on a microtiter plate. […] Thus invention compositions having lower amounts of albumin are preferred.

Sequence of immobilized albumin (P02768 25-609): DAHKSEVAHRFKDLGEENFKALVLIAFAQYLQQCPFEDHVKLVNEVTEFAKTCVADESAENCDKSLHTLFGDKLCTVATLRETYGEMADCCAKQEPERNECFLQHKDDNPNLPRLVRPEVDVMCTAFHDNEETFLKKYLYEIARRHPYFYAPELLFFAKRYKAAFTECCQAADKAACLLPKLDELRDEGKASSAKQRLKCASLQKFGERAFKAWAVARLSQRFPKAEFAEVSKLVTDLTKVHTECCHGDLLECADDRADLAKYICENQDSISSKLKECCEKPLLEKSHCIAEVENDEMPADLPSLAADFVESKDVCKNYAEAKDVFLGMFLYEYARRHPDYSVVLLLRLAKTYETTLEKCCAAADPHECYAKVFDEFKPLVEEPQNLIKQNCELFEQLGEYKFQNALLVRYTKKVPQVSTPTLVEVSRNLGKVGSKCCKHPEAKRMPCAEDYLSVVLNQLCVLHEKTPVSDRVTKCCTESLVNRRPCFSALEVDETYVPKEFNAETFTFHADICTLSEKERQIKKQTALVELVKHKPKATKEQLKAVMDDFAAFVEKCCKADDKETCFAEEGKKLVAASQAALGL

As for `CC(=O)N(O)CCCCCNC(=O)CCC(=O)N(O)CCCCCNC(=O)CCC(=O)N(O)CCCCCN` [Deferoxamine mesylate USP, N-[5-[3-[(5-aminopentyl)-hydroxycarbamoyl]-propion-amido]pentyl]-3[[5-((N-hydroxyacetamido)pentyl]-carbamoyl]propionohydroxamic acid monomethanesulfonate (salt)], the solubility in water result in series [1] is reported as “freely soluble in water”.

As for `CC(C)c1cccc(C(C)C)c1O` [propofol, 2,6-diisopropylphenol], the “maximum solubility in water” value in series [2] was 1.0 ± 0.02 µM.

For the molecule albumin, the “binding of fluorescent paclitaxel to immobilized albumin as added albumin increased” value at immobilized albumin is reported as “a corresponding decrease in binding”.
